Experimental data as given in US20200325177A1, “METHODS OF MAKING STREPTOGRAMIN COMPOSITIONS AND THE USE THEREOF” (THE REGENTS OF THE UNIVERSITY OF CALIFORNIA, priority 2017, published 2020).
Values after ≈ are worked out from the molar mass of the structure shown. Like-named read-outs stand apart in the source and are kept apart here.

Columns and labels:
Format in all cases: cell-based
E. faecalis = assay: MIC, Gram-positive bacteria: E. faecalis; conditions: Enterococcus faecalis, column 1, read-out: Minimal Inhibitory Concentration (MIC) E. faecalis
E. faecium ATCC 35667 = assay: MIC, Gram-positive bacteria: E. faecium ATCC 35667; conditions: Enterococcus faecium, ATCC35667, column 2, read-out: Minimal Inhibitory Concentration (MIC) E. faecium ATCC 35667
E. faecium VRE; vanA = assay: MIC, Gram-positive bacteria: E. faecium VRE; vanA; conditions: Enterococcus faecium, column 3, read-out: Minimal Inhibitory Concentration (MIC) E. faecium VRE
S. aureus = assay: MIC, Gram-positive bacteria: S. aureus (strains not named); conditions: Staphylococcus aureus, read-out: Minimal Inhibitory Concentration (MIC) S. aureus
[1] = system: S. aureus Vat A streptogramin; assay: MIC, Gram-positive bacteria: S. aureus Vat A streptogramin; conditions: Staphylococcus aureus, read-out: Minimal Inhibitory Concentration (MIC) S. aureus Vat A streptogramin
[2] = system: S. aureus Linezolid-resistant; cfr; assay: MIC, Gram-positive bacteria: S. aureus Linezolid-resistant; cfr; conditions: Staphylococcus aureus, column 9, read-out: Minimal Inhibitory Concentration (MIC) S. aureus Linezolid-resistant
S. pneumoniae = assay: MIC, Gram-positive bacteria: S. pneumoniae; conditions: Streptococcus pneumoniae, column 10, read-out: Minimal Inhibitory Concentration (MIC) S. pneumoniae
[3] = system: K. pneumoniae multidrug-resistant; assay: MIC, Gram-negative bacteria: K. pneumoniae multidrug-resistant; conditions: Klebsiella pneumoniae, read-out: Minimal Inhibitory Concentration (MIC) K. pneumoniae multidrug-resistant
P. aeruginosa ATCC 27853 = assay: MIC, Gram-negative bacteria: P. aeruginosa ATCC 27853; conditions: Pseudomonas aeruginosa, ATCC27853, read-out: Minimal Inhibitory Concentration (MIC) P. aeruginosa ATCC 27853
[4] = system: P. aeruginosa MDR clinical isolate; assay: MIC, Gram-negative bacteria: P. aeruginosa MDR clinical isolate; conditions: Pseudomonas aeruginosa, read-out: Minimal Inhibitory Concentration (MIC) P. aeruginosa MDR clinical isolate
H. influenzae ATCC 49247 = assay: MIC, Gram-negative bacteria: H. influenzae ATCC 49247; conditions: Haemophilus influenzae, ATCC49247, read-out: Minimal Inhibitory Concentration (MIC) H. influenzae ATCC 49247
Gram-Negative Organisms = assay: microbe, parasite or virus in culture
[5] = first unnamed S. aureus column (c4)
[6] = fourth unnamed S. aureus column (c8)
[7] = second unnamed S. aureus column (c6)
[8] = third unnamed S. aureus column (c7)
[9] = Acinetobacter baumannii, ATCC19606, read-out: Minimal Inhibitory Concentration (MIC), A. baumannii ATCC 19606
[10] = Escherichia coli, ATCC25922, read-out: Minimal Inhibitory Concentration (MIC), E. coli ATCC 25922
[11] = Escherichia coli, read-out: Minimal Inhibitory Concentration (MIC), E. coli BAS2006, OMP C, OMP F
[12] = Escherichia coli, read-out: Minimal Inhibitory Concentration (MIC), E. coli olC efflux defective
[13] = Escherichia coli, read-out: Minimal Inhibitory Concentration (MIC), E. coli permeability mutant BAS1314, IMP4213ZAB::TN10
[14] = Escherichia coli, read-out: Minimal Inhibitory Concentration (MIC), E. coli ΔompC768, KanR insert
[15] = Klebsiella pneumoniae, ATCC43816, read-out: Minimal Inhibitory Concentration (MIC), K. pneumoniae ATCC 43816

Row | SMILES | MIC (E. faecalis) [mg/L] | MIC (E. faecium ATCC 35667) [mg/L] | MIC (E. faecium VRE; vanA) [mg/L] | MIC (S. aureus; [5]) [mg/L] | MIC (S. aureus; [6]) [mg/L] | MIC (S. aureus; [7]) [mg/L] | MIC (S. aureus; [8]) [mg/L] | MIC ([1]; Gram-positive, column 5) [mg/L] | MIC [2] [mg/L] | MIC (S. pneumoniae) [mg/L] | MIC [3] [mg/L] | MIC (P. aeruginosa ATCC 27853) [mg/L] | MIC [4] [mg/L] | MIC (H. influenzae ATCC 49247) [mg/L] | MIC (Gram-Negative Organisms; [9]) [mg/L] | MIC (Gram-Negative Organisms; [10]) [mg/L] | MIC (Gram-Negative Organisms; [11]) [mg/L] | MIC (Gram-Negative Organisms; [12]) [mg/L] | MIC (Gram-Negative Organisms; [13]) [mg/L] | MIC (Gram-Negative Organisms; [15]) [mg/L] | also measured
1 | CC1=C\[C@@H](O)CC(=O)Cc2nc(co2)C(=O)N2CCC[C@@H]2C(=O)O[C@H]([C@H](C)COC(=O)Nc2ccnc(Br)c2)[C@H](C)/C=C/C(=O)NC\C=C\1 [SA0110206] | > 64 | 8 (≈ 10.8 µM) | 16 (≈ 21.5 µM) | 16 (≈ 21.5 µM) | 16 (≈ 21.5 µM) | 16 (≈ 21.5 µM) | 32 (≈ 43.1 µM) | > 64 | > 64 | 8 (≈ 10.8 µM) | > 64 | > 64 | > 64 | 4 (≈ 5.39 µM) | > 64 | > 64 | 16 (≈ 21.5 µM) | 2 (≈ 2.69 µM) | 2 (≈ 2.69 µM) | > 64 | MIC (Gram-Negative Organisms; [14]): > 64 mg/L
2 | CC1=C\[C@@H](O)CC(=O)Cc2nc(co2)C(=O)N[C@H](Cc2ccc(O)cc2)C(=O)O[C@H](C(C)C)[C@H](C)/C=C/C(=O)NC\C=C\1 [SA0202097] | > 64 | > 64 | > 64 | > 64 | > 64 | > 64 | > 64 | > 64 | > 64 | 64 (≈ 108 µM) | > 64 | > 64 | > 64 | > 64 | > 64 | > 64 | > 64 | 32 (≈ 53.9 µM) | 32 (≈ 53.9 µM) | > 64 | MIC (Gram-Negative Organisms; [14]): > 64 mg/L
3 | CC1=C\[C@@H](O)CC(=O)Cc2nc(co2)C(=O)N[C@H](Cc2c[nH]c3ccccc23)C(=O)O[C@H](C(C)C)[C@H](C)/C=C/C(=O)NC\C=C\1 [SA0202089] | > 64 | 32 (≈ 51.9 µM) | 32 (≈ 51.9 µM) | 32 (≈ 51.9 µM) | 32 (≈ 51.9 µM) | 32 (≈ 51.9 µM) | 32 (≈ 51.9 µM) | 64 (≈ 104 µM) | > 64 | 32 (≈ 51.9 µM) | > 64 | > 64 | > 64 | > 64 | > 64 | > 64 | 32 (≈ 51.9 µM) | 16 (≈ 25.9 µM) | 8 (≈ 13 µM) | > 64 | 
4 | CC1=C\[C@@H](O)CC(=O)Cc2nc(co2)C(=O)N2CCC[C@@H]2C(=O)O[C@H]([C@@H](C)CN2CCN(C)CC2)[C@H](C)/C=C/C(=O)NC\C=C\1 [SA0110241] | > 64 | > 64 | > 64 | > 64 | > 64 | > 64 | > 64 | > 64 | > 64 | > 64 | > 64 | > 64 | > 64 | > 64 | > 64 | > 64 | > 64 | > 64 | > 64 | > 64 | MIC (Gram-Negative Organisms; [14]): > 64 mg/L
5 | CC1=C\[C@@H](O)CC(=O)Cc2nc(co2)C(=O)N2CCC=C2C(=O)O[C@H](C(C)C)[C@H](C)/C=C/C(=O)NC\C=C\1 [virginiamycin M1, Virginiamycin M1, reference compound] | 32 (≈ 60.9 µM) | 2 (≈ 3.81 µM) | 4 (≈ 7.61 µM) | 4 (≈ 7.61 µM) | 2 (≈ 3.81 µM) | 2 (≈ 3.81 µM) | 8 (≈ 15.2 µM) | 32 (≈ 60.9 µM) | > 64 | 4 (≈ 7.61 µM) | > 64 | > 64 | > 64 | 1 (≈ 1.9 µM) | > 64 | > 64 | > 64 | 2 (≈ 3.81 µM) | 0.25 (≈ 0.476 µM) | > 64 | 
6 | CC1=C\[C@@H](O)CC(=O)Cc2nc(co2)C(=O)N2CCC[C@@H]2C(=O)O[C@H]([C@@H](C)COC(=O)Nc2cnccn2)[C@H](C)/C=C/C(=O)NC\C=C\1 [SA0110101] | > 64 | 64 (≈ 96.3 µM) | > 64 | > 64 | > 64 | > 64 | > 64 | > 64 | > 64 | 32 (≈ 48.1 µM) | > 64 | > 64 | > 64 | 64 (≈ 96.3 µM) | > 64 | > 64 | 64 (≈ 96.3 µM) | 8 (≈ 12 µM) | 16 (≈ 24.1 µM) | > 64 | 
7 | CC1=C\[C@@H](O)CC(=O)Cc2nc(co2)C(=O)N2CCC[C@@H]2C(=O)O[C@H]([C@@H](C)COC(=O)Nc2cc(C)on2)[C@H](C)/C=C/C(=O)NC\C=C\1 [SA0110115] | > 64 | 32 (≈ 47.9 µM) | > 64 | > 64 | 64 (≈ 95.8 µM) | > 64 | > 64 | > 64 | > 64 | 16 (≈ 24 µM) | > 64 | > 64 | > 64 | 64 (≈ 95.8 µM) | > 64 | > 64 | 64 (≈ 95.8 µM) | 8 (≈ 12 µM) | 16 (≈ 24 µM) | > 64 | 
8 | CC1=C\[C@@H](O)CC(=O)Cc2nc(c([Si](C)(C)C)o2)C(=O)N2CCC[C@@H]2C(=O)O[C@H](C(C)C)[C@H](C)/C=C/C(=O)NC\C=C\1 [SA0110261] | > 64 | 64 (≈ 107 µM) | > 64 | > 64 | 64 (≈ 107 µM) | 64 (≈ 107 µM) | > 64 |  | > 64 | 64 (≈ 107 µM) | > 64 | > 64 | > 64 | > 64 | > 64 | > 64 | > 64 | 64 (≈ 107 µM) | 16 (≈ 26.7 µM) | > 64 | MIC [1]: > 64 mg/L; MIC (Gram-Negative Organisms; [14]): > 64 mg/L
